Laboratory results reported in ChEMBL document CHEMBL1201862, “PubChem BioAssay data set” (2004).
Calls of active or inactive are those of the source.

Key:
[1] = target: T1, RNA-binding protein pos-1 (Caenorhabditis elegans, UniProt G5EF15); experiment: inhibitors of POS-1/mex-3 RNA binding, dose response, biochemical, fluorescence polarization (AID 1964);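 also: purified POS-1 fused to maltose binding protein made in E. coli; potency of compounds blocking POS-1 binding to fluorescent RNA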
T1 sequence (G5EF15 whole entry): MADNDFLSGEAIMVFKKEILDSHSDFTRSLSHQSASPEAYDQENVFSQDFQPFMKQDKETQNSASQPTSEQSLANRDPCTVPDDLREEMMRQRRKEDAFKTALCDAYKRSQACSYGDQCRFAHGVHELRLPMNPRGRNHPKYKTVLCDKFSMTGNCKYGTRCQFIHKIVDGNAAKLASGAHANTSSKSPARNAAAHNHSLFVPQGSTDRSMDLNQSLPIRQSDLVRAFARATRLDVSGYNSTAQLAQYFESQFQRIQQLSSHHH

[2] = target: T2, Zinc finger protein mex-5 (Caenorhabditis elegans, UniProt Q9XUB2); experiment: MEX-5/TCR-2 RNA interaction inhibitors, dose response, biochemical, C. elegans, fluorescence polarization (AID 1960)
T2 sequence (Q9XUB2 whole entry): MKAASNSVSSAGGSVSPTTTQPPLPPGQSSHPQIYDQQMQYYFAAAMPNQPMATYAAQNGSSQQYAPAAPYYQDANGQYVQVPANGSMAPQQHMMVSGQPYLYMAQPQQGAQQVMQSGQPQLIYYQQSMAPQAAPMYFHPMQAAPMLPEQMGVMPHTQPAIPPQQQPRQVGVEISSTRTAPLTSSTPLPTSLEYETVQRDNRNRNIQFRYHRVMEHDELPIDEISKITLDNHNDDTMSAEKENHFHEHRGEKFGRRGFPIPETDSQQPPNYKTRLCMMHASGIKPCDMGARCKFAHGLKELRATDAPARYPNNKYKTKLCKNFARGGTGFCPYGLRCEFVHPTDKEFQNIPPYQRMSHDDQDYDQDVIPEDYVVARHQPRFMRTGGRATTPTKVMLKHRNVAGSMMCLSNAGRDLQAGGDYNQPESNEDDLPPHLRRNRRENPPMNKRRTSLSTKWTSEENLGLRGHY

[3] = target: T3, Histone-lysine N-methyltransferase NSD2 (Homo sapiens, UniProt O96028); assay type: biochemical
T3 sequence (O96028 whole entry): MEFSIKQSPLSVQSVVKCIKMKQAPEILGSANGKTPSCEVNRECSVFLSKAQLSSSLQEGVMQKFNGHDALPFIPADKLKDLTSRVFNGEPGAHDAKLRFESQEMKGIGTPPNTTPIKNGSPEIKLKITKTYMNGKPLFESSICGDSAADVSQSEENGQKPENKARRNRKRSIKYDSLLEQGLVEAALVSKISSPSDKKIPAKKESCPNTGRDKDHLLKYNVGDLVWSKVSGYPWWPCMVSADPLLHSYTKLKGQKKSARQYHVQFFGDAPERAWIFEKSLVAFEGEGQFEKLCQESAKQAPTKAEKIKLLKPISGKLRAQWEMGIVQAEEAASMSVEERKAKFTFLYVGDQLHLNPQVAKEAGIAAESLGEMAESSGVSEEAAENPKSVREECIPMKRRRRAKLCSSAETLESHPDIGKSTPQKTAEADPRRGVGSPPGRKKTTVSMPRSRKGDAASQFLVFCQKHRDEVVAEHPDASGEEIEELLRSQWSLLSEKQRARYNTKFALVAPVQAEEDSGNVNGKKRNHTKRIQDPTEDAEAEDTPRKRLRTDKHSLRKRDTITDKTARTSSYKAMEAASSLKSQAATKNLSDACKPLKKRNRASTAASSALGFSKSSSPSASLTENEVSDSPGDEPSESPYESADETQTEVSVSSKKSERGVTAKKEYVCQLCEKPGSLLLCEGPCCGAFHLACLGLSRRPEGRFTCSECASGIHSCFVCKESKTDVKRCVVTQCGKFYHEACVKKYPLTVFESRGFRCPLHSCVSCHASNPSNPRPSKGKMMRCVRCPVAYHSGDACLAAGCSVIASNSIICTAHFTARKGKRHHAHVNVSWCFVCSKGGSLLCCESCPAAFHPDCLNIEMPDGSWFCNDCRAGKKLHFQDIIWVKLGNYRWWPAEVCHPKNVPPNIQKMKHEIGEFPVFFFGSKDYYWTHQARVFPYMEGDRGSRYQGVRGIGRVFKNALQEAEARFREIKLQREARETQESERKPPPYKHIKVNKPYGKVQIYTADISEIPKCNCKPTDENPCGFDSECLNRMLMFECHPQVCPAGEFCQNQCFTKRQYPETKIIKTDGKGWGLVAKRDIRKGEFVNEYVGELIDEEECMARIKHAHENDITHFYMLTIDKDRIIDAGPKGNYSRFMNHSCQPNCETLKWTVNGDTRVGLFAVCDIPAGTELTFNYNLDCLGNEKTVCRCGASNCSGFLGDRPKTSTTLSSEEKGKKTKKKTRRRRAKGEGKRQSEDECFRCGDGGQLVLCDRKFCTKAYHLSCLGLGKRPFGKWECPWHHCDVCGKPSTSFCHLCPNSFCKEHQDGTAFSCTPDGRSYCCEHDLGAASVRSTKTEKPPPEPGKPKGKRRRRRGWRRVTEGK

[4] = HEp-2 cell cytotoxicity, dose response, cytotoxicity control for RSV inhibitor project, HTS (AID 2410); assay type: functional; details: human respiratory syncytial virus
[5] = target: Beta-galactosidase (Escherichia coli, UniProt Q8VNN2); experiment: PubChem AID 485352; assay type: functional
Chain of Beta-galactosidase (Q8VNN2 whole entry): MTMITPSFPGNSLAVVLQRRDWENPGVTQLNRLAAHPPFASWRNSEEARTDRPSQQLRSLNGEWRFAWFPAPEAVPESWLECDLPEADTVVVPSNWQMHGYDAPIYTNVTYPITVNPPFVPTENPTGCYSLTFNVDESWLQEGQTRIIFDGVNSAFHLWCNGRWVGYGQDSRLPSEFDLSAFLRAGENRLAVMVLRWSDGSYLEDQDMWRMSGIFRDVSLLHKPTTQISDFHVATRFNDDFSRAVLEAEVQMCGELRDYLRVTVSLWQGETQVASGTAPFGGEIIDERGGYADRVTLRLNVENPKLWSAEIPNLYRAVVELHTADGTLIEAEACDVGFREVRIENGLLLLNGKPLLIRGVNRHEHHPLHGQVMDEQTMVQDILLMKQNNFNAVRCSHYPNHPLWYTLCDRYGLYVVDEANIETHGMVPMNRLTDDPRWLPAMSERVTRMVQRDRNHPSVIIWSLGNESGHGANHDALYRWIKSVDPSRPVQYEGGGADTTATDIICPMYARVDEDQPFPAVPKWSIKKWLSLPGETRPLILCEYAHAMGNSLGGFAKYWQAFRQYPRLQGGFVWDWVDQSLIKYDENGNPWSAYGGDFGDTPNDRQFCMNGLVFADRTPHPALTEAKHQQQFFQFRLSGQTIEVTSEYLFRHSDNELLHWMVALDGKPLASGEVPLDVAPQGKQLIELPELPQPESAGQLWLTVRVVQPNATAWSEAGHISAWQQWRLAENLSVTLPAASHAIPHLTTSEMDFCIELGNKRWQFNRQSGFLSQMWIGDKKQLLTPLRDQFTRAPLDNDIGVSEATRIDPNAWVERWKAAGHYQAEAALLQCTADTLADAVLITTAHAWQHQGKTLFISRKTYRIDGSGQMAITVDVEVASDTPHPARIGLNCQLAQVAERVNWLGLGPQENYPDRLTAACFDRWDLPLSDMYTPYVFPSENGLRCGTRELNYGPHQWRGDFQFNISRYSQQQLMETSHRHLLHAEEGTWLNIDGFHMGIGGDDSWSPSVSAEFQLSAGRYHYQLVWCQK

[6] = target: T4, Type-1 angiotensin II receptor (Homo sapiens, UniProt P30556); experiment: AT1 receptor antagonists, dose response, selectivity assay for APJ receptor antagonist project, cell-based, uHTS hits (AID 463214); assay type: functional;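 also: antagonist potency against angiotensin II stimulated AT1 response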
T4 sequence (P30556 whole entry): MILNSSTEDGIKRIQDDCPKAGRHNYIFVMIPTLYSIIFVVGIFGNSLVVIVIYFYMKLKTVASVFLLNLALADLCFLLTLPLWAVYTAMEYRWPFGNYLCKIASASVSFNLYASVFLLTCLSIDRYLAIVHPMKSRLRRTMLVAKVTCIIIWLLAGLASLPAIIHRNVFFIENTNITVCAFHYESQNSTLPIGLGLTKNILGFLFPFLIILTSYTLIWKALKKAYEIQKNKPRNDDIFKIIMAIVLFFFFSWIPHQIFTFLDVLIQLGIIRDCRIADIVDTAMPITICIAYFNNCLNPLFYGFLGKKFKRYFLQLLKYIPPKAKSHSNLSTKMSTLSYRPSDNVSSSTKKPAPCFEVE

[7] = target: T5, Replicative DNA helicase DnaB (Mycobacterium tuberculosis, UniProt P9WMR3); experiment: DnaB intein splicing inhibitors, dose response, biochemical, cell-free fluorescence (AID 449749); assay type: functional
T5 sequence (P9WMR3 whole entry): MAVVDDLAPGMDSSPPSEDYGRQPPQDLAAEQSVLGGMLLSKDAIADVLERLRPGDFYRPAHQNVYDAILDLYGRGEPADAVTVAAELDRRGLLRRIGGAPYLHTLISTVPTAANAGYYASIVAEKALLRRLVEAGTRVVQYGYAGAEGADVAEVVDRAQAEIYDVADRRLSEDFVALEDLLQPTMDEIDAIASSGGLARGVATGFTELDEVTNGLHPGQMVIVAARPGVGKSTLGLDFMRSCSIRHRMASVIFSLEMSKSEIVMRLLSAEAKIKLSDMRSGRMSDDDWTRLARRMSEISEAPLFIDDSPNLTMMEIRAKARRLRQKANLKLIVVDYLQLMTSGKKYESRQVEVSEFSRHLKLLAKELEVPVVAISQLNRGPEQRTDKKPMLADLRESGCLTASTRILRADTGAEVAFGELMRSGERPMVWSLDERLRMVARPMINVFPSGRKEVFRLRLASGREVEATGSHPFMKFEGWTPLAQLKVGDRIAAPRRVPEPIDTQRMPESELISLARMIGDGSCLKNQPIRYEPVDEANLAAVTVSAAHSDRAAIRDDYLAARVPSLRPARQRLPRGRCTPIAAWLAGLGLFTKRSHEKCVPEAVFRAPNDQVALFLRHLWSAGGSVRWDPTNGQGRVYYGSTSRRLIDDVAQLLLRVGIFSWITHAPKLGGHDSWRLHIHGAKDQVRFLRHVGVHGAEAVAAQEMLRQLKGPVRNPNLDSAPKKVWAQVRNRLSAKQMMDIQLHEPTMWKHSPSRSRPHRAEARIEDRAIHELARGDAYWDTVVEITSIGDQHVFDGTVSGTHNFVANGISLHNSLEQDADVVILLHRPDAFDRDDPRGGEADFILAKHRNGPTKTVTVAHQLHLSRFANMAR

[8] = target: T6, Protein RecA (Mycobacterium tuberculosis, UniProt P9WHJ3); experiment: Fluorescence Cell-Free Homogeneous Dose Retest to Identify Inhibitors of RecA-Intein Splicing Activity. [Related pubchem assays (depositor defined):AID2097, AID2223, AID489010, AID492950]; assay type: functional
T6 sequence (P9WHJ3 whole entry): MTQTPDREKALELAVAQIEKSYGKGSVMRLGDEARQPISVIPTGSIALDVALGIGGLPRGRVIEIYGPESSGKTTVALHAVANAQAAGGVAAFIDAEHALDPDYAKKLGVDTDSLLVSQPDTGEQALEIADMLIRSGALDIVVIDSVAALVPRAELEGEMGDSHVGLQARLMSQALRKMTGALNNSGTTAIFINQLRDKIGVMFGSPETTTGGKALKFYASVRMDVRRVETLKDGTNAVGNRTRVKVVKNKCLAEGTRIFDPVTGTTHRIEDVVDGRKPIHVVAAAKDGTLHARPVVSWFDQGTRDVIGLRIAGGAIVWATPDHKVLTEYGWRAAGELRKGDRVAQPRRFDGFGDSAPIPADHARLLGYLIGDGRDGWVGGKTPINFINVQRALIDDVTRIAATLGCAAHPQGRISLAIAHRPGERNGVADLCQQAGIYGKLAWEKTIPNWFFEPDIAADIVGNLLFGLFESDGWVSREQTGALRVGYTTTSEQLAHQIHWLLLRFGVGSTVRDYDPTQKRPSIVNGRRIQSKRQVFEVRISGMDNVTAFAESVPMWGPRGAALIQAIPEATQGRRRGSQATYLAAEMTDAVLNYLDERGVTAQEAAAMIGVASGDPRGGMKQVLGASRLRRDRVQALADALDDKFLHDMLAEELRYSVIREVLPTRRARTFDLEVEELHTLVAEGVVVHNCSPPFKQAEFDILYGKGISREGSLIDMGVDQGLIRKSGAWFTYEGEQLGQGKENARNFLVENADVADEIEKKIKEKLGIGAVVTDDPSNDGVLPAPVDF

[9] = target: T7, Fatty acid synthase (Homo sapiens, UniProt P49327); experiment: FAS thioesterase domain inhibitors, dose response, biochemical, endpoint fluorescence intensity, uHTS hits (AID 624327); assay type: functional;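 also: fluorescence from hydrolysis of an O-methyl fluorescein acyl ester substrate by the enzyme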
T7 sequence (P49327 whole entry, the tested form may be a part): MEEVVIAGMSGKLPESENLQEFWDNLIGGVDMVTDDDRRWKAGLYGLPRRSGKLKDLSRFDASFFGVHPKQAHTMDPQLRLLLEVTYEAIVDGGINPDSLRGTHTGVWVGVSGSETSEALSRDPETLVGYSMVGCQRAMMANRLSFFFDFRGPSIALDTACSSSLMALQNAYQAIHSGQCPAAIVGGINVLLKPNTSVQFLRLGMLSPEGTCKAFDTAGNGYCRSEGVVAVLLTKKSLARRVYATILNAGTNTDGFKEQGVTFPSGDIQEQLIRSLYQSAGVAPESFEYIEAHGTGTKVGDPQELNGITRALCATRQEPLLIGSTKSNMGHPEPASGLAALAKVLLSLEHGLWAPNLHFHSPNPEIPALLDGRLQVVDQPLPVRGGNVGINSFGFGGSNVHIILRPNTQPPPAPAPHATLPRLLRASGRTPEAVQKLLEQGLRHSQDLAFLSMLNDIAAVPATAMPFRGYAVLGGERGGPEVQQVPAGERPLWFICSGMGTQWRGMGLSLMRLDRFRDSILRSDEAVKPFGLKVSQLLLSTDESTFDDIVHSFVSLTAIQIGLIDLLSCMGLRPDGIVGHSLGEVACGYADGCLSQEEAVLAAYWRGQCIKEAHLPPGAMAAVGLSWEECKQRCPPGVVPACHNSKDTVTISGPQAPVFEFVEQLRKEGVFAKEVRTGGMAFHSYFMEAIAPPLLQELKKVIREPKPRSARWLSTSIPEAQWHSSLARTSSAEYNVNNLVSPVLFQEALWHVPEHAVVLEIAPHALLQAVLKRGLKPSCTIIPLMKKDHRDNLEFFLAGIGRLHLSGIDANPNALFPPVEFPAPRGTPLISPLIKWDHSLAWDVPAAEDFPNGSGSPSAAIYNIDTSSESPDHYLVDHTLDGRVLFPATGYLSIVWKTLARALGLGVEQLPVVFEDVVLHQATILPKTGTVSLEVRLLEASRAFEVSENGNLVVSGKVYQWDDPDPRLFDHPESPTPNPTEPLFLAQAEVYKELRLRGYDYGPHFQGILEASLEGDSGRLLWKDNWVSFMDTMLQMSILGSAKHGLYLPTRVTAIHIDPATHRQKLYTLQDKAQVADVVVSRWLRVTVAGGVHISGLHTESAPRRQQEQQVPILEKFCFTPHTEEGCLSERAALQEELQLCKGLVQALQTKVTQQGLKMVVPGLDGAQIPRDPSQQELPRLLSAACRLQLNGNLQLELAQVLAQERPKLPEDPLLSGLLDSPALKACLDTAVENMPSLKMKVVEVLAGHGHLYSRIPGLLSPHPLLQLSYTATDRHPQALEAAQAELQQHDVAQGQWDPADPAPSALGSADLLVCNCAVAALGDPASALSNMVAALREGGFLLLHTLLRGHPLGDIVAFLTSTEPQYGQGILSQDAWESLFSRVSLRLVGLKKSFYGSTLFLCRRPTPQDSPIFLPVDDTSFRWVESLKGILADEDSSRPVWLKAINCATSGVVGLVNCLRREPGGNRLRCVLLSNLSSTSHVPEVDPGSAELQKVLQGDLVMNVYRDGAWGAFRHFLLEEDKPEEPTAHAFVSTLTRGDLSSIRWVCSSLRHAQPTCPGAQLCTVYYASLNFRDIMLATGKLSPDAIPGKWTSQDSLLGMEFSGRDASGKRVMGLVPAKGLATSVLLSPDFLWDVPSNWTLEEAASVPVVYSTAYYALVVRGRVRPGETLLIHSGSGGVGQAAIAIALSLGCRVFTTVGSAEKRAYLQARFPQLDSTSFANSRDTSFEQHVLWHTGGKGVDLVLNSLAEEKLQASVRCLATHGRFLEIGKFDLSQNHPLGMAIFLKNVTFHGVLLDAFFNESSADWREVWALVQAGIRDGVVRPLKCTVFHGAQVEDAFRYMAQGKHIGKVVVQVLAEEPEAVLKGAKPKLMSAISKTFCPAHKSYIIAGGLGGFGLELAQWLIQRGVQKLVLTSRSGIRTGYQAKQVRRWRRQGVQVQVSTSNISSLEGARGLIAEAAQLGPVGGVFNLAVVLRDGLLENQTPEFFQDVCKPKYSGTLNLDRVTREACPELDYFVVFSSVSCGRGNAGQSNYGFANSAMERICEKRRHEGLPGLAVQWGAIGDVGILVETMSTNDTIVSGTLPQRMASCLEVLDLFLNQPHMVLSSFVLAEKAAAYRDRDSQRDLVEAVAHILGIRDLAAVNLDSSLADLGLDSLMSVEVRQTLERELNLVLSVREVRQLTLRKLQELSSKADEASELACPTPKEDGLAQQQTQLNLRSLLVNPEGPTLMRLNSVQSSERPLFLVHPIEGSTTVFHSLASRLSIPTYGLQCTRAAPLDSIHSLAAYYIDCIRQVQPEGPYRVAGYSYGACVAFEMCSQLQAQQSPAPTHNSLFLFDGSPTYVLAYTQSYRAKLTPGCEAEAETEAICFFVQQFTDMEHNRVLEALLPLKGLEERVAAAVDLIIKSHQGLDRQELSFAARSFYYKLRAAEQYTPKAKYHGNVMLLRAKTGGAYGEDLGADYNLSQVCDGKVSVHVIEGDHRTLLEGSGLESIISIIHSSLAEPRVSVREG

[10] = target: T7, Fatty acid synthase; experiment: FAS thioesterase domain inhibitors, dose response, biochemical, kinetic fluorescence intensity (AID 624326); assay type: functional;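 also: rate of fluorescence rise from hydrolysis of a fluorogenic O-methyl fluorescein ester substrate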
[11] = A549 cell cytotoxicity, dose response, cytotoxicity control, plate reader, cherry-pick, antagonist series (AID 743412); assay type: functional, cell-based
[12] = LGR2 antagonists, dose response, cell-based, HEK293, CRE-luciferase reporter, cherry pick, set 2 (AID 743343); assay type: functional;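 also: transfected cells were stimulated with diluted bursicon conditioned medium after compound addition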
[13] = MC4R antagonists, dose response, counter-screen for LGR2 antagonist project, cell-based, plate reader, cherry pick (AID 743444); assay type: functional;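 also: transfected HEK 293 cells stimulated with alpha-MSH peptide; potency of inhibitors of the alpha-MSH evoked signal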
[14] = test system: HEK293; experiment: HEK293T cell cytotoxicity, dose response, cytotoxicity control, ATP luminescence, cherry-pick samples (AID 687005); assay type: functional, cell-based; details: Homo sapiens;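 also: cells exposed to compound for 48 hours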
[15] = HEK293 Cytotoxicity Assay Measured in Cell-Based System Using Plate Reader - 7071-01_Inhibitor_Dose_CherryPick_Activity_Set2.; assay type: functional
[16] = inhibitors of HIV Env-driven cell fusion, dose response, cherry-pick (AID 652057); assay type: functional, cell-based
[17] = target: Paired box protein Pax-8 (Homo sapiens, UniProt Q06710); experiment: inhibitors of PAX8-driven TPO luciferase reporter, dose response, RMG-I cells, cherry-pick (AID 687027); assay type: functional, cell-based;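 also: luciferase reporter driven by Pax8 target thyroperoxidase promoter measured by SteadyGlo luminescence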
Chain of Paired box protein Pax-8 (Q06710 whole entry, the tested form may be a part): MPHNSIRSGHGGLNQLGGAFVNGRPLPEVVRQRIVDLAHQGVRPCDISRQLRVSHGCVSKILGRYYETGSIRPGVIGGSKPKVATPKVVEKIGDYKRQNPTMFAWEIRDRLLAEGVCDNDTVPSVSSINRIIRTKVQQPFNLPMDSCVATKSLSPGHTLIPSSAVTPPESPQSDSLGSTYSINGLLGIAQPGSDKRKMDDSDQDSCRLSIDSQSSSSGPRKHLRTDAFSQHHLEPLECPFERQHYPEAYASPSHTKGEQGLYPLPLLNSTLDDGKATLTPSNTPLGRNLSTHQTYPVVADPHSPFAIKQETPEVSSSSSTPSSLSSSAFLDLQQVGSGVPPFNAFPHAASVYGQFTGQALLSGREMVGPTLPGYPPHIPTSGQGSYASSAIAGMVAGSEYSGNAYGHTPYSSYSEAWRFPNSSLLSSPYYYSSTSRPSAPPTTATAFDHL

[18] = inhibitors of clade B AD8 Env fusion, dose response, cell-based, cherry-pick (AID 652062); assay type: functional;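 also: luciferase signal from cell-cell fusion driven by HIV-1 clade B AD8 Env; potency is for inhibitors of fusion seen as a drop in luminescence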
[19] = NIH:OVCAR-3 ovarian cancer cell cytotoxicity, dose response, PAX8 inhibitor project, plate reader, dry powder samples (AID 743044); assay type: functional, cell-based
[20] = cytotoxicity in OVCAR8 ovarian cancer cells, dose response, PAX8 project, cell-based, plate reader, dry powder samples (AID 743197); assay type: functional; details: OVCAR-8
[21] = target: Disintegrin and metalloproteinase domain-containing protein 17 (Homo sapiens, UniProt P78536); experiment: ADAM17 protease inhibitors, dose response, counter-screen for ADAM10 exosite inhibitor project, biochemical, quenched FRET substrate (AID 743253)
[22] = target: Cytochrome P450 2D6 (Homo sapiens, UniProt P10635);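 also: CYP2D6 member of a cytochrome P450 panel assay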
Chain of Cytochrome P450 2D6 (P10635 whole entry): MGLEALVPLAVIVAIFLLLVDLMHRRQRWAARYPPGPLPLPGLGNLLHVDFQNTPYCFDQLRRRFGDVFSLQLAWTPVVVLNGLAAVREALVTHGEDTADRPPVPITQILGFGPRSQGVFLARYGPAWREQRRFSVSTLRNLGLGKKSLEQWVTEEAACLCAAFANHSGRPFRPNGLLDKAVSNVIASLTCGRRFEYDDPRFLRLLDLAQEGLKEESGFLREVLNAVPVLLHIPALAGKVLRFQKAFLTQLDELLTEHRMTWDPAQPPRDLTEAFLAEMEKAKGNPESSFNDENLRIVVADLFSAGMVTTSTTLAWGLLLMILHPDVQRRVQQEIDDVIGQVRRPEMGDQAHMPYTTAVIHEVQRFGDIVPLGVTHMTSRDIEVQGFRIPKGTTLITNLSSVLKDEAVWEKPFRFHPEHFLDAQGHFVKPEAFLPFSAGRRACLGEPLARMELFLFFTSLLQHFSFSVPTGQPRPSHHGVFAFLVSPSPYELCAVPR

[23] = target: Cytochrome P450 2C9 (Homo sapiens, UniProt P11712)
Chain of Cytochrome P450 2C9 (P11712 whole entry): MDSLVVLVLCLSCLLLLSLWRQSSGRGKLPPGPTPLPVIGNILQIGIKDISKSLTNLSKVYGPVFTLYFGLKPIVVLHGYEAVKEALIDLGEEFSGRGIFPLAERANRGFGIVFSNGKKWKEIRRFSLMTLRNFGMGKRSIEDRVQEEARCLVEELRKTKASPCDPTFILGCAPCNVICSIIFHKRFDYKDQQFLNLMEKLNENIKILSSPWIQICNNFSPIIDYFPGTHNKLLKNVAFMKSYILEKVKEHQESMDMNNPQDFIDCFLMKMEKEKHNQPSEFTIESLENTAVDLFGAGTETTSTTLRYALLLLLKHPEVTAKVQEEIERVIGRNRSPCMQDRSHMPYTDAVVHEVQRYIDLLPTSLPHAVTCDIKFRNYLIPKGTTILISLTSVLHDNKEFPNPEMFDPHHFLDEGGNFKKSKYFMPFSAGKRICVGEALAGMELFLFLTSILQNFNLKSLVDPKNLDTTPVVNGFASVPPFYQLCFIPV

Structure (SMILES): N#CC(C#N)=Cc1cccn1-c1ccc(C(=O)O)cc1
- EC50 [1]: > 300 µM (not active)
- EC50 [2]: 160 µM (active)
- AC50 [3]: > 20 µM (inactive)

Structure (SMILES): CCCSc1cc(NCCOC(=O)CCC)c([N+](=O)[O-])c2nonc12
- CC50 [4]: 14.8 µM (active)
- EC50 [5]: > 40 µM (inactive)
- IC50 [6]: 11 µM (active)
- AC50 [7]: 55 µM (active)
- EC50 [8]: 4.48 µM (active)
- IC50 [9]: 16.3 µM (active)
- IC50 [10]: 16.5 µM (active)

Structure (SMILES): Cc1ccccc1C(=O)Nc1ccc2c(c1)OCCO2
- AC50 [11]: > 52 µM (inactive)
- AC50 [12]: 10.5 µM (active)
- AC50 [13]: 11.1 µM (active)

Structure (SMILES): C[C@H]1CCCCO[C@H](CN(C)Cc2ccncc2)[C@@H](C)CN([C@@H](C)CO)C(=O)c2cc(NC(=O)CCCN(C)C)ccc2O1
- AC50 [14]: 38.1 µM (active)
- AC50 [15]: 38.1 µM (active)

Structure (SMILES): O=C(Nc1ccc(C(F)(F)F)cc1)Nc1ccc2c(c1)[C@@H]1C[C@H](CC(=O)N3CCc4ccccc4C3)O[C@H](CO)[C@@H]1O2
- AC50 [16]: 14.2 µM (active)
- AC50 [17]: 9.5 µM (active)
- AC50 [18]: 18.5 µM (active)
- AC50 [19]: 34.4 µM (active)
- AC50 [20]: 48.6 µM (active)

Structure (SMILES): O=C(C[C@H]1CC[C@@H]2[C@H](COC[C@@H](O)CN2S(=O)(=O)c2cccc(Cl)c2)O1)Nc1ccc(-c2ccccc2)cc1
- AC50 [17]: 8.33 µM (active)
- AC50 [20]: > 70 µM (inactive)

Structure (SMILES): COc1cc(/C=N/O)cc(Br)c1OCc1ccc(Cl)cc1
- IC50 [21]: > 69.5 µM (inactive)
- AC50 [22]: 17.8 µM (inconclusive)
- AC50 [23]: inconclusive
